Data from PubChem BioAssay (NCI).
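48-hour exposure; five concentrations; linearly interpolated endpoints. TGI: concentration producing complete growth inhibition.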

Legend:
Assay in all cases: NCI anticancer screen, dose series, 48 h
COLO 205 colon = tested on: COLO 205 colon
SK-MEL-28 melanoma = tested on: SK-MEL-28 melanoma
DU-145 prostate = tested on: DU-145 prostate
HOP-92 NSCLC = tested on: HOP-92 NSCLC
MCF7 breast = tested on: MCF7 breast
HOP-62 NSCLC = tested on: HOP-62 NSCLC
HCC-2998 colon = tested on: HCC-2998 colon
SW-620 colon = tested on: SW-620 colon
MDA-N = tested on: MDA-N
NCI/ADR-RES ovarian = tested on: NCI/ADR-RES ovarian
TK-10 renal = tested on: TK-10 renal
HCT-116 colon = tested on: HCT-116 colon
SF-268 CNS = tested on: SF-268 CNS
SN12C renal = tested on: SN12C renal
CAKI-1 renal = tested on: CAKI-1 renal
NCI-H460 lung = tested on: NCI-H460 lung
UACC-62 melanoma = tested on: UACC-62 melanoma
OVCAR-3 ovarian = tested on: OVCAR-3 ovarian
MDA-MB-435 = tested on: MDA-MB-435
LOX IMVI melanoma = tested on: LOX IMVI melanoma
NCI-H522 lung = tested on: NCI-H522 lung
MDA-MB-231 breast = tested on: MDA-MB-231 breast
MOLT-4 leukemia = tested on: MOLT-4 leukemia
OVCAR-4 ovarian = tested on: OVCAR-4 ovarian
OVCAR-5 ovarian = tested on: OVCAR-5 ovarian
OVCAR-8 ovarian = tested on: OVCAR-8 ovarian
SF-295 CNS = tested on: SF-295 CNS
SK-MEL-2 melanoma = tested on: SK-MEL-2 melanoma
A498 renal = tested on: A498 renal
UACC-257 melanoma = tested on: UACC-257 melanoma
T-47D breast = tested on: T-47D breast
HT29 colon = tested on: HT29 colon
BT-549 breast = tested on: BT-549 breast
HS 578T breast = tested on: HS 578T breast
SNB-75 CNS = tested on: SNB-75 CNS
HCT-15 colon = tested on: HCT-15 colon
786-0 renal = tested on: 786-0 renal
CCRF-CEM leukemia = tested on: CCRF-CEM leukemia
SK-MEL-5 melanoma = tested on: SK-MEL-5 melanoma
PC-3 prostate = tested on: PC-3 prostate
HL-60(TB) leukemia = tested on: HL-60(TB) leukemia
SR leukemia = tested on: SR leukemia
SK-OV-3 ovarian = tested on: SK-OV-3 ovarian
A549 NSCLC = tested on: A549 NSCLC
ACHN renal = tested on: ACHN renal
KM12 colon = tested on: KM12 colon
IGROV1 ovarian = tested on: IGROV1 ovarian
NCI-H23 lung = tested on: NCI-H23 lung
UO-31 renal = tested on: UO-31 renal
M14 melanoma = tested on: M14 melanoma
EKVX NSCLC = tested on: EKVX NSCLC
SF-539 CNS = tested on: SF-539 CNS
RXF 393 renal = tested on: RXF 393 renal
K-562 leukemia = tested on: K-562 leukemia
RPMI-8226 leukemia = tested on: RPMI-8226 leukemia
NCI-H226 lung = tested on: NCI-H226 lung
U251 CNS = tested on: U251 CNS

Measured: TGI

O=S1(=O)c2ccccc2C(=NO)c2ccccc21
36.2 µM: HL-60(TB) leukemia
> 100 µM: all other assays above
